Results published in PubChem BioAssay AID588757 (Broad Institute, 2011).
The source made the active and inactive calls.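 Rule for the calls: active = compounds whose fitted half-maximal concentration is at most ten times their top valid tested dose; inconclusive = flat fit showing moderate inhibition, or poor fit quality; inactive = the rest.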

Each compound was assayed against Aurora kinase B (Homo sapiens) (UniProt Q96GD4) (assay: AURKB enzyme activity inhibitors – biochemical, scintillation, dry powder, counter-screen for STK33 inhibitor project, dose response (AID 588757)). Settings: ATP at Km, gamma-32P-ATP, 40 min room temperature, P30 filtermat scintillation counting.
Sequence of Aurora kinase B (Homo sapiens) (Q96GD4 whole entry, looked up): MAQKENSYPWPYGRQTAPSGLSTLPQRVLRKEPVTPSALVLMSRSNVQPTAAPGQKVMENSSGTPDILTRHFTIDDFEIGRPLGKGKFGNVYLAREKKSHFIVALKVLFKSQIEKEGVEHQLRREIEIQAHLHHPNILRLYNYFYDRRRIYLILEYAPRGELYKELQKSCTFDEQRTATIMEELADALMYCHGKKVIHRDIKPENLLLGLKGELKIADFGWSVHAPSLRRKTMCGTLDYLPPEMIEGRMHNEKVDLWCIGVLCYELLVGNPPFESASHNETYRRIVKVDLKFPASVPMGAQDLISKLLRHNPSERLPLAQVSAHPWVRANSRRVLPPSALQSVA

AC50 | SMILES
142 nM | Oc1ccc(Nc2nc(-c3ccccc3O)nc3ccccc23)cc1
1660 nM | O=C(Nc1ccccc1-c1ccccc1)c1ccc(Br)o1
1470 nM | CC(C)n1cnc2c(Nc3cccc(Cl)c3)nc(NCCO)nc21
12.6 nM | Nc1nc(-c2cc(O)ccc2[N+](=O)[O-])cc(-c2ccccc2)c1[N+](=O)[O-]
> 3000 nM (inactive) | CCOc1ccccc1C(=O)Nc1cc(Cl)ccc1O
170 nM | CCCn1c(NC(=O)c2cccc(S(=O)(=O)N3CCCC3)c2)nc2ccccc21
346 nM | Cc1ncc(/C=C2\C(=O)Nc3ccccc32)[nH]1

Same assay, conditions: ATP at Km, gamma-32P-ATP, 40 min room temperature, P30 filtermat scintillation counting, at 3 µM (top of the series)

activity change, negative = inhibition | SMILES
inactive | COc1cc(/C=C2\SC(N)=NC2=O)ccc1O
inactive | COc1cc(C(=O)NC2CCN(C)CC2)ccc1Nc1ncc2c(n1)N(C1CCC(O)CC1)CCC(=O)N2C (centres undefined)
inactive | O=C(Nc1ccccc1-c1nc2ccccc2[nH]c1=O)c1cccs1
inactive | COC(=O)c1ccc(COc2ccccc2/C=C/C(=O)c2ccc(OCC(=O)O)cc2)cc1
inactive | COc1cc(/C=N/n2c(-c3ccccc3)n[nH]c2=S)ccc1O
inactive | CC(=O)N(C)c1ccc(N=Cc2c(O)ccc3ccccc23)cc1
inactive | O=S(=O)(c1cccc2cnccc12)N1CCCNCC1
